Legend:
[1] = 1H NMR detection of the interaction of substance 42 with creatine; format: binding; settings: CD3OD solution; creatine added to the test solution
Procedure: The ability of substance 42 to detect creatine was evaluated by ^1H NMR spectroscopy. […] (Bell, T. W. et al. 36th National Organic Symposium, U. of Wisconsin, Madison, Wis., Jun. 13, 1999-Jun. 17, 1999). [drawing 32] [drawing 33]

[2] = test system: animal models of Huntington's disease; settings: oral supplementation; cited from earlier work

O=C(O)c1ccc2c(n1)-c1nc3nc4c(cc3cc1CC2)CCc1ccc(C(=O)O)nc1-4 [Substance 42]
ability to detect creatine (interaction with creatine by 1H NMR) [1]: interaction of creatine with substance 42 was detected

N=C1NCCN1CC(=O)O [cyclocreatine, 1-carboxymethyl-2-iminoimidazolidine]
protection from malonate lesions [2]: protect the animals from malonate lesions

— US6566086B1, “Diagnostic kit for detecting creatine levels” (FAL Diagnostics, priority 2000, dated 2003)
